Experimental data as given in publication PMC5363373, “Zirconium tetraazamacrocycle complexes display extraordinary stability and provide a new strategy for zirconium-89-based radiopharmaceutical development” (Chemical Science, 2016).

Legend:
[1] = In vitro EDTA challenge study; assay type: physicochemical
Protocol: In vitro EDTA challenge study. In vitro EDTA challenge study was carried out by adding 10 µL of each 89Zr-labeled complex (70 μCi, 2.59 MBq) to 500 µL of EDTA (10 mM, 50 mM and 100 mM: pH 5 and pH 7) with a 1:100, 1:500, and 1:1000 ratio of ligand/EDTA. The solutions (n=4) were incubated at 37 °C for 7 days in a thermomixer. Samples were analyzed at 30 min, 1 h, 3 h, 6 h, 1 d, 3 d, 5 d and 7 d post administration to EDTA by radio-TLC using Varian ITLC-SA strips and 0.1 M EDTA (pH 5) as the mobile phase and gamma counting using an energy window of 500-1500 keV and standard protocols .

[2] = In vitro metal competition study; assay type: physicochemical; conditions: PBS pH 7.4, 37 C
Protocol: In vitro Metal Competition study. To a solution of metal cations [iron (III) chloride, cobalt (II) chloride, zinc (II) chloride, copper (II) chloride, magnesium (II) chloride, gallium (III) nitrate, gadolinium (III) chloride] (1 mM, 200 µL), was added 89Zr-labeled complex (0.1 mM, 10 µL, 80 μCi, 2.96 MBq) in PBS, pH 7.4. The resulting solutions (n = 3) were incubated at 37 °C for 7 days in a thermomixer. Dissociation of 89Zr from 89Zr-complexes was monitored by radio-TLC at 2 h, 1 d, 4 d and 7 d time point. All studies were performed in triplicate.

[3] = In vitro serum stability (radio-ITLC); assay type: in vitro ADME; conditions: 37 C, after 7 days
Protocol: In vitro serum stability. In vitro serum stability was carried out by adding 10 µL of each 89Zr-labeled complex (70 μCi, 2.59 MBq) to 500 µL of human serum. The solutions (n=4) were incubated at 37 °C for 7 days and were analyzed daily for 1 week by radio -TLC using Varian ITLC-SA strips and 0.1 M EDTA (pH 5) as the mobile phase and gamma counting using an energy window of 500-1500 keV and standard protocols . Serum samples were also analyzed after 7 days by size exclusion chromatography (SEC) using a Superdex 200 10/300 GLTM column (GE Healthcare Life Sciences, Piscataway, NJ) and phosphate buffered saline (PBS) as eluent with a flow rate of 0.5 mL/min.
Figure S30. Radio-ITLC of 89Zr-DOTA solution in human serum at 37 °C after 0 h (a) and 7 days (b). […]

Biodistribution studies = assay type: in vivo, female NIH Swiss mice; conditions: mice
Protocol: Biodistribution Studies. Biodistribution studies were conducted using a modified literature procedure. 7 Briefly, female NIH Swiss mice (6-8 wk old, n=6) were injected with each 89Zr-labeled complex (0.55 MBq (15 μCi)/mouse) via the tail vein, and sacrificed at 2, 4, 24, 48, 72 h post-injection. Organs and tissues of interest were excised, weighted, and counted on a Perkin Elmer 2480 Wizard® gamma counter (Waltham, MA). The percent injected dose per gram (%ID/g) and percent injected dose per organ (%ID/organ) were calculated by comparison to a weighed, counted standard for each group (Tables S9 – S12).
Statistical Methods. All of the data are presented as mean±SD or mean (95% Confidence Interval). For statistical classification a student’s t test (two-tailed, unpaired) was performed using GraphPad Prism (San Diego, CA). Any p<0.05 was considered significant.

[4] = intravenous, 72 h post-injection

SMILES: CC(=O)N1CCCCCNC(=O)CCC(=O)N2CCCCCNC(=O)CCC(=O)N(CCCCCN)[O][89Zr+]([O]1)[O]2 [89Zr-DFO, reference compound]
- % Intact of 89Zr-complexes ([1]; EDTA 100-fold, pH 5.0, 37 C, 30 min): 93.0 ± 0.7%
- % Intact of 89Zr-complexes ([1]; EDTA 100-fold, pH 5.0, 37 C, 1 h): 85.5 ± 0.9%
- % Intact of 89Zr-complexes ([1]; EDTA 100-fold, pH 5.0, 37 C, 3 h): 59.6 ± 0.8%
- % Intact of 89Zr-complexes ([1]; EDTA 100-fold, pH 5.0, 37 C, 6 h): 29.4 ± 0.7%
- % Intact of 89Zr-complexes ([1]; EDTA 100-fold, pH 5.0, 37 C, 1 d): 6.6 ± 0.3%
- % Intact of 89Zr-complexes ([1]; EDTA 100-fold, pH 5.0, 37 C, 3 d): 5.4 ± 0.3%
- % Intact of 89Zr-complexes ([1]; EDTA 100-fold, pH 5.0, 37 C, 5 d): 4.4 ± 0.2%
- % Intact of 89Zr-complexes ([1]; EDTA 100-fold, pH 5.0, 37 C, 7 d): 3.6 ± 0.1%
- % Intact of 89Zr-complexes ([1]; EDTA 100-fold, pH 7.0, 37 C, 30 min): 99.0 ± 0.4%
- % Intact of 89Zr-complexes ([1]; EDTA 100-fold, pH 7.0, 37 C, 1 h): 96.6 ± 1.1%
- % Intact of 89Zr-complexes ([1]; EDTA 100-fold, pH 7.0, 37 C, 3 h): 90.3 ± 0.8%
- % Intact of 89Zr-complexes ([1]; EDTA 100-fold, pH 7.0, 37 C, 6 h): 89.4 ± 0.2%
- % Intact of 89Zr-complexes ([1]; EDTA 100-fold, pH 7.0, 37 C, 1 d): 88.6 ± 0.2%
- % Intact of 89Zr-complexes ([1]; EDTA 100-fold, pH 7.0, 37 C, 3 d): 87.2 ± 0.6%
- % Intact of 89Zr-complexes ([1]; EDTA 100-fold, pH 7.0, 37 C, 5 d): 86.6 ± 0.3%
- % Intact of 89Zr-complexes ([1]; EDTA 100-fold, pH 7.0, 37 C, 7 d): 83.9 ± 0.5%
- % Intact of 89Zr-complexes ([1]; EDTA 500-fold, pH 5.0, 37 C, 30 min): 60.9 ± 1.0%
- % Intact of 89Zr-complexes ([1]; EDTA 500-fold, pH 5.0, 37 C, 1 h): 33.9 ± 1.2%
- % Intact of 89Zr-complexes ([1]; EDTA 500-fold, pH 5.0, 37 C, 3 h): 3.9 ± 0.4%
- % Intact of 89Zr-complexes ([1]; EDTA 500-fold, pH 5.0, 37 C, 6 h): 0%
- % Intact of 89Zr-complexes ([1]; EDTA 500-fold, pH 7.0, 37 C, 30 min): 90.3 ± 0.7%
- % Intact of 89Zr-complexes ([1]; EDTA 500-fold, pH 7.0, 37 C, 1 h): 81.1 ± 1.1%
- % Intact of 89Zr-complexes ([1]; EDTA 500-fold, pH 7.0, 37 C, 3 h): 58.6 ± 0.3%
- % Intact of 89Zr-complexes ([1]; EDTA 500-fold, pH 7.0, 37 C, 6 h): 42.7 ± 1.2%
- % Intact of 89Zr-complexes ([1]; EDTA 500-fold, pH 7.0, 37 C, 1 d): 36.2 ± 0.7%
- % Intact of 89Zr-complexes ([1]; EDTA 500-fold, pH 7.0, 37 C, 3 d): 31.8 ± 1.1%
- % Intact of 89Zr-complexes ([1]; EDTA 500-fold, pH 7.0, 37 C, 5 d): 30.4 ± 0.9%
- % Intact of 89Zr-complexes ([1]; EDTA 500-fold, pH 7.0, 37 C, 7 d): 28.5 ± 0.4%
- % Intact of 89Zr-complexes ([1]; EDTA 1000-fold, pH 5.0, 37 C, 30 min): 37.7 ± 1.1%
- % Intact of 89Zr-complexes ([1]; EDTA 1000-fold, pH 5.0, 37 C, 1 h): 14.6 ± 0.7%
- % Intact of 89Zr-complexes ([1]; EDTA 1000-fold, pH 5.0, 37 C, 3 h): 0%
- % Intact of 89Zr-complexes ([1]; EDTA 1000-fold, pH 7.0, 37 C, 30 min): 85.6 ± 1.1%
- % Intact of 89Zr-complexes ([1]; EDTA 1000-fold, pH 7.0, 37 C, 1 h): 68.3 ± 1.2%
- % Intact of 89Zr-complexes ([1]; EDTA 1000-fold, pH 7.0, 37 C, 3 h): 45.4 ± 0.7%
- % Intact of 89Zr-complexes ([1]; EDTA 1000-fold, pH 7.0, 37 C, 6 h): 32.9 ± 0.5%
- % Intact of 89Zr-complexes ([1]; EDTA 1000-fold, pH 7.0, 37 C, 1 d): 28.1 ± 0.7%
- % Intact of 89Zr-complexes ([1]; EDTA 1000-fold, pH 7.0, 37 C, 3 d): 24.5 ± 0.8%
- % Intact of 89Zr-complexes ([1]; EDTA 1000-fold, pH 7.0, 37 C, 5 d): 21.4 ± 1.2%
- % Intact of 89Zr-complexes ([1]; EDTA 1000-fold, pH 7.0, 37 C, 7 d): 20.3 ± 0.5%
- Loss of metal ions in EDTA challenge ([1]; after 3 h incubation, 1000-fold excess of EDTA at pH 5): completely lost metal ions
- % Intact of 89Zr-complexes ([2]; Co2+, 2 h): 99.2 ± 0.2%
- % Intact of 89Zr-complexes ([2]; Co2+, 1 d): 98.3 ± 0.4%
- % Intact of 89Zr-complexes ([2]; Co2+, 4 d): 98.1 ± 0.3%
- % Intact of 89Zr-complexes ([2]; Co2+, 7 d): 95.4 ± 0.9%
- % Intact of 89Zr-complexes ([2]; Cu2+, 2 h): 98.9 ± 0.5%
- % Intact of 89Zr-complexes ([2]; Cu2+, 1 d): 98.6 ± 0.4%
- % Intact of 89Zr-complexes ([2]; Cu2+, 4 d): 97.3 ± 0.7%
- % Intact of 89Zr-complexes ([2]; Cu2+, 7 d): 96.0 ± 1.0%
- % Intact of 89Zr-complexes ([2]; Fe3+, 2 h): 96.5 ± 0.2%
- % Intact of 89Zr-complexes ([2]; Fe3+, 1 d): 76.1 ± 1.3%
- % Intact of 89Zr-complexes ([2]; Fe3+, 4 d): 53.2 ± 3.8%
- % Intact of 89Zr-complexes ([2]; Fe3+, 7 d): 33.9 ± 1.5%
- % Intact of 89Zr-complexes ([2]; Fe3+, 7 d, listed as 89Zr–DFO): 33.9%
- % Intact of 89Zr-complexes ([2]; Ga3+, 2 h): 99.3 ± 0.2%
- % Intact of 89Zr-complexes ([2]; Ga3+, 1 d): 93.4 ± 2.6%
- % Intact of 89Zr-complexes ([2]; Ga3+, 4 d): 81.1 ± 0.5%
- % Intact of 89Zr-complexes ([2]; Ga3+, 7 d): 72.6 ± 1.3%
- % Intact of 89Zr-complexes ([2]; Ga3+, 7 d, listed as 89Zr–DFO): 72.6%
- % Intact of 89Zr-complexes ([2]; Gd3+, 2 h): 99.4 ± 0.3%
- % Intact of 89Zr-complexes ([2]; Gd3+, 1 d): 98.8 ± 0.1%
- % Intact of 89Zr-complexes ([2]; Gd3+, 4 d): 98.4 ± 0.3%
- % Intact of 89Zr-complexes ([2]; Gd3+, 7 d): 96.8 ± 0.2%
- % Intact of 89Zr-complexes ([2]; Mg2+, 2 h): 99.3 ± 0.1%
- % Intact of 89Zr-complexes ([2]; Mg2+, 1 d): 98.6 ± 0.5%
- % Intact of 89Zr-complexes ([2]; Mg2+, 4 d): 97.6 ± 0.8%
- % Intact of 89Zr-complexes ([2]; Mg2+, 7 d): 96.8 ± 1.2%
- % Intact of 89Zr-complexes ([2]; Zn2+, 2 h): 99.5 ± 0.1%
- % Intact of 89Zr-complexes ([2]; Zn2+, 1 d): 98.8 ± 0.3%
- % Intact of 89Zr-complexes ([2]; Zn2+, 4 d): 97.7 ± 0.6%
- % Intact of 89Zr-complexes ([2]; Zn2+, 7 d): 95.9 ± 0.7%
- Radio-ITLC peak of complex in human serum [3]: 100%
- Radioactivity in blood (Biodistribution studies; [4]): 0.0003 ± 0.0005 % ID per g
- Radioactivity in bone (Biodistribution studies; [4]): 0.079 ± 0.014 % ID per g
- Radioactivity in kidney (Biodistribution studies; [4]): 0.69 ± 0.098 % ID per g
- Radioactivity in liver (Biodistribution studies; [4]): 0.066 ± 0.009 % ID per g
- Radioactivity retention in bone tissue over time (Biodistribution studies; time points up to 72 h): increases over time
